Data reported in ChEMBL document CHEMBL2321853, “Novel acylethanolamide derivatives that modulate body weight through enhancement of hypothalamic pro-opiomelanocortin (POMC) and/or decreased neuropeptide Y (NPY)” (J Med Chem, 2013).
Activity calls are given as the source filed them. No cut-off for these calls is given here.

Tests used:
[1] = target: Transient receptor potential cation channel subfamily V member 1 (Rattus norvegicus) (UniProt O35433); assay: Displacement of [3H]resiniferatoxin from TRPV1 receptor in Wistar rat spinal cord at 10 uM relative to control
[2] = test system: Mus musculus; assay: Antiobesity activity in Sabra mouse assessed as reduction in body weight at 1 mg/kg, ip administered on day 0, 10, 11, 12, 24, 29 measured on day 26 relative to control; assay type: functional; design: scale not given: the % may be the effect or the level left; settings: route intraperitoneal
[3] = test system: Mus musculus; assay: Antiobesity activity in C57BL/6 mouse assessed as weight loss at 5 mg/kg, ip administered on day 1, 4, 5, 7, 17, 15, 19 measured on day 5 relative to control; assay type: functional; settings: route intraperitoneal
[4] = test system: Mus musculus; assay: Antiobesity activity in high fat diet fed C57BL/6 mouse assessed as reduction in body weight at 1 mg/kg, ip administered on day 3, 6, 8, 9, 10 measured on day 9 relative to control; assay type: functional; design: scale not given: the % may be the effect or the level left; settings: route intraperitoneal
[5] = test system: Hypothalamus; assay: Effect on POMC gene expression in Sabra mouse hypothalamus assessed as change in mRNA level at 1 mg/kg, ip administered on day 8, 9, 10, 11, 14, 18, 24 and 32 by RT-PCR analysis relative to GAPDH; assay type: functional; settings: route intraperitoneal
[6] = test system: Mus musculus; assay: Antiobesity activity in Sabra mouse assessed as change in body weight at 1 mg/kg, ip administered on day 8, 12 and 43 measured on day 71 relative to control; assay type: functional; settings: route intraperitoneal
[7] = test system: Mus musculus; assay: Antiobesity activity in high fat diet fed C57BL/6 mouse assessed as reduction food consumption at 1 mg/kg, ip administered on day 3, 6, 8, 9, 10 measured after week 2 relative to control; assay type: functional; design: scale not given: the % may be the effect or the level left; settings: route intraperitoneal
[8] = test system: Mus musculus; assay: Enhancement of cognitive function in Sabra mouse at 1 mg/kg, ip administered on day 6 to 10 by eight-arm maze test; assay type: functional, organism-based; design: dose 1 mg/kg
[9] = test system: Mus musculus; assay: Enhancement of cognitive function in Sabra mouse at 1 mg/kg, ip administered on day 8, 12 and 43 by eight-arm maze test; assay type: functional, organism-based; design: dose 1 mg/kg
[10] = test system: Mus musculus; assay: Antiobesity activity in C57BL/6 mouse assessed as weight loss at 5 mg/kg, ip administered on day 1, 4, 5, 7, 17, 15, 19 measured on day 12 relative to control; assay type: functional; settings: route intraperitoneal
[11] = test system: Hypothalamus; assay: Effect on 5HT1A gene expression in Sabra mouse hypothalamus assessed as change in mRNA level at 1 mg/kg, ip administered on day 8, 9, 10, 11, 14, 18, 24 and 32 by RT-PCR analysis relative to GAPDH; assay type: functional; settings: route intraperitoneal
[12] = test system: Mus musculus; assay: Antiobesity activity in Sabra mouse assessed as change in body weight at 1 mg/kg, ip administered on day 8, 12 and 43 measured on day 29 relative to control; assay type: functional; settings: route intraperitoneal
[13] = test system: Mus musculus; assay: Antiobesity activity in Sabra mouse assessed as change in body weight at 1 mg/kg, ip administered on day 8, 9, 10, 11, 14, 18, 24 and 32 measured on day 25 relative to control; assay type: functional; settings: route intraperitoneal
[14] = test system: Mus musculus; assay: Enhancement of cognitive function in Sabra mouse at 10 mg/kg, ip administered on day 6 to 10 by eight-arm maze test relative to control; assay type: functional, organism-based; design: dose 10 mg/kg
[15] = test system: Hypothalamus; assay: Effect on POMC gene expression in ip dosed Sabra mouse hypothalamus assessed as increase in mRNA level administered on day 6 to 10 measured on day 16 by RT-PCR analysis relative to control; assay type: functional, organism-based
[16] = test system: Hypothalamus; assay: Effect on CAMKK2 gene expression in Sabra mouse hypothalamus assessed as change in mRNA level at 1 mg/kg, ip administered on day 8, 9, 10, 11, 14, 18, 24 and 32 by RT-PCR analysis relative to GAPDH; assay type: functional; settings: route intraperitoneal
[17] = test system: Mus musculus; assay: Antiobesity activity in C57BL/6 mouse assessed as weight loss at 5 mg/kg, ip administered on day 1, 4, 5, 7, 17, 15, 19 measured on day 19 relative to control; assay type: functional; settings: route intraperitoneal
[18] = test system: Mus musculus; assay: Antiobesity activity in Sabra mouse assessed as change in body weight at 1 mg/kg, ip administered on day 8, 12 and 43 measured on day 12 relative to control; assay type: functional; settings: route intraperitoneal
[19] = test system: Mus musculus; assay: Antiobesity activity in Sabra mouse assessed as change in body weight at 1 mg/kg, ip administered on day 8, 12 and 43 measured on day 15 relative to control; assay type: functional; settings: route intraperitoneal
[20] = test system: Mus musculus; assay: Antiobesity activity in Sabra mouse assessed as change in food consumption at 1 mg/kg, ip administered on day 8, 9, 10, 11, 14, 18, 24 and 32 measured after 6 weeks relative to control; assay type: functional; settings: route intraperitoneal
[21] = test system: Mus musculus; assay: Antiobesity activity in high fat diet fed C57BL/6 mouse assessed as reduction in body weight at 1 mg/kg, ip administered on day 3, 6, 8, 9, 10 measured on day 10 relative to control; assay type: functional; design: scale not given: the % may be the effect or the level left; settings: route intraperitoneal
[22] = test system: Mus musculus; assay: Antiobesity activity in Sabra mouse assessed as change in body weight at 1 mg/kg, ip administered on day 8, 9, 10, 11, 14, 18, 24 and 32 measured on day 30 relative to control; assay type: functional; settings: route intraperitoneal
[23] = test system: Mus musculus; assay: Antiobesity activity in Sabra mouse assessed as change in food consumption at 1 mg/kg, ip administered on day 8, 9, 10, 11, 14, 18, 24 and 32 measured after 5 weeks relative to control; assay type: functional; settings: route intraperitoneal
[24] = test system: Mus musculus; assay: Hepatotoxicity in Sabra mouse assessed as ischemic changes at 1 mg/kg, ip administered on day 8, 9, 10, 11, 14, 18, 24 and 32 by hematoxylin and eosin staining-based histopathological analysis; assay type: toxicity, organism-based; design: dose 1 mg/kg, route intraperitoneal; settings: in vivo
[25] = test system: Mus musculus; assay: Antiobesity activity in C57BL/6 mouse assessed as change in glucose level in blood at 5 mg/kg, ip administered on day 1, 4, 5, 7, 17, 15, 19 measured on day 11 relative to control; assay type: functional; settings: route intraperitoneal
[26] = test system: Mus musculus; assay: Antiobesity activity in Sabra mouse assessed as change in body weight at 1 mg/kg, ip administered on day 8, 12 and 43 measured on day 43 relative to control; assay type: functional; settings: route intraperitoneal
[27] = test system: Mus musculus; assay: Antiobesity activity in Sabra mouse assessed as reduction in body weight at 1 mg/kg, ip administered on day 0, 10, 11, 12, 24, 29 measured on day 33 relative to control; assay type: functional; design: scale not given: the % may be the effect or the level left; settings: route intraperitoneal
[28] = test system: Mus musculus; assay: Antiobesity activity in Sabra mouse assessed as reduction in body weight at 10 mg/kg, ip administered on day 6 to 10 measured on day 16 relative to control; assay type: functional; design: scale not given: the % may be the effect or the level left; settings: route intraperitoneal
[29] = test system: Mus musculus; assay: Antiobesity activity in Sabra mouse assessed as change in body weight at 1 mg/kg, ip administered on day 8, 9, 10, 11, 14, 18, 24 and 32 measured on day 9 relative to control; assay type: functional; settings: route intraperitoneal
[30] = test system: Mus musculus; assay: Antiobesity activity in C57BL/6 mouse assessed as weight loss at 5 mg/kg, ip administered on day 1, 4, 5, 7, 17, 15, 19 measured on day 9 relative to control; assay type: functional; settings: route intraperitoneal
[31] = test system: Mus musculus; assay: Enhancement of motor activity C57BL/6 mouse assessed as reduction food consumption at 1 mg/kg, ip administered on day 3, 6, 8, 9, 10 measured on day 10; assay type: functional, organism-based; design: dose 1 mg/kg
[32] = test system: Mus musculus; assay: Antiobesity activity in Sabra mouse assessed as reduction in body weight at 1 mg/kg, ip administered on day 0, 10, 11, 12, 24, 29 measured on day 36 relative to control; assay type: functional; design: scale not given: the % may be the effect or the level left; settings: route intraperitoneal

Transient receptor potential cation channel subfamily V member 1 (Rattus norvegicus), sequence (O35433 whole entry): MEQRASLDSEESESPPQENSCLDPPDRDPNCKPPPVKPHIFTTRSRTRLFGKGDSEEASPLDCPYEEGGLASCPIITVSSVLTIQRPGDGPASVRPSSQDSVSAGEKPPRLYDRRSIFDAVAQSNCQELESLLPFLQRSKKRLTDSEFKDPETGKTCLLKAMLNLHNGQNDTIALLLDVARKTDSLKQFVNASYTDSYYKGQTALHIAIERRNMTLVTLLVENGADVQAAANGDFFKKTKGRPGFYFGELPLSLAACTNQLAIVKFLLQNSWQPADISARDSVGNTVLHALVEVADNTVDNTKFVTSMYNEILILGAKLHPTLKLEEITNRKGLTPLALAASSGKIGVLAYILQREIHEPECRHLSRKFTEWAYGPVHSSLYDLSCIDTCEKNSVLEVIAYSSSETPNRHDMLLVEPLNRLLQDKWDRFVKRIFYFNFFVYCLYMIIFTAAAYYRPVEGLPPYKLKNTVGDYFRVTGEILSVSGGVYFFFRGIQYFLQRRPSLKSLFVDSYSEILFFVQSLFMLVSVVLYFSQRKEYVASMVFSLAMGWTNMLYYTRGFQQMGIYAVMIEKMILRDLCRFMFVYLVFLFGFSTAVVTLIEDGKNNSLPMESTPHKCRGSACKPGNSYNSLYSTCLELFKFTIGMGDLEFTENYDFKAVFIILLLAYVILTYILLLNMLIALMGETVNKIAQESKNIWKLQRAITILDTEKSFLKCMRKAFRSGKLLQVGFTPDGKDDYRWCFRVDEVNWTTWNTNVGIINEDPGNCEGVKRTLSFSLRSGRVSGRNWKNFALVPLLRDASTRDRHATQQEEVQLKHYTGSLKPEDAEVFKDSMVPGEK

In the case of `CCCCCCCC/C=C\CCCCCCCC(=O)N[C@H](CO)C(C)C`, the inhibition [1] is reported as 1%, the Activity [2] is reported as -4.05% and the Activity [3] is reported as -3.2%. For the same compound, the Activity [4] was -3.1%, the Activity [5] was 36% and the Activity [6] was -11.4%. For the same compound, the Activity [7] was 45%, the Activity [8] was “Active” and the Activity [9] was “Active”. It also gave an Activity [10] of -5.6%, an Activity [11] of -20% and an Activity [12] of -4.9%. The Activity [13] was -5%, the Activity [14] was “inactive” and the Activity [15] was “Dose-dependent effect”. For the same compound, the Activity [16] was -18%, the Activity [17] was 2.1% and the Activity [18] was -2.2%. For the same compound, the Activity [19] was -2.2%, the Activity [20] was 83.6% and the Activity [21] was -6.3%. The Activity [22] was -5.2%, the Activity [23] was 85.9% and the Activity [24] was “Non-toxic”. It also gave an Activity [25] of -17.3%, an Activity [26] of -7.5% and an Activity [27] of -4%. For the same compound, the Activity [28] was 6.4%, the Activity [29] was -2.2% and the Activity [30] was -3%. The Activity [31] was “Active” and the Activity [32] was -5.49%.
